Measured values reported in article PMC5961436, “PKA and PKC Modulators Affect Ion Channel Function and Internalization of Recombinant Alpha1 and Alpha1-Beta Glycine Receptors” (Frontiers in Molecular Neuroscience, 2018).
Read-outs that look alike come from different tables or passages of the source.

Experiments:
GlyR α1-β = experiment: Receptor internalization assay (pre-labeled GlyRs, confocal microscopy) in HEK293 cells; assay type: cell-based, human; settings: 200 nM modulator, 15 min, 37°C; untreated cells 1.7 ± 0.4 dots/cell; ± SEM
Method: To stain internalized GlyRs, GlyR α1 was cotransfected with GlyR β into HEK293 cells grown on glass cover slips. Internalization experiments were performed 24 h post-transfection. Live cells co-expressing GlyR α1-β receptors were labeled with the α1-specific monoclonal antibody Mab2b (1:500 in Earle’s minimal essential medium for 1 h at 4°C). Earle’s minimal essential medium was supplemented with 10% fetal calf serum, […] GlutaMAX, 100 mM sodium pyruvate, and 50 U/ml penicillin/streptomycin (Thermo Fisher Scientific, Waltham, MA, USA). Mab2b was purchased from Synaptic Systems, Göttingen, Germany. Following three washing steps in phosphate-buffered saline (PBS, pH 7.4), cells were incubated with goat-anti-mouse-Cy3 secondary antibody again for 1 h at 4°C (dilution of secondary antibody 1:500 in Earle’s minimal essential medium, Dianova, Hamburg Germany). Glass cover slips with pre-labeled GlyRs were transferred into a 24-well plate containing 500 μl of Earle’s minimal essential medium with PKA and PKC modulators (200 nM final concentration each; Forskolin, H-89, PMA, Staurosporine aglycon, all from Sigma-Aldrich Chemie GmbH, Munich, Germany). Cells were incubated with modulators for 15 min to allow receptor internalization. Time point zero (0 min) was taken as a negative internalization control to ensure health of HEK293 cells (pre-labeling of GlyRs at 4°C inhibits internalization). Following incubation with PKA and PKC modulators, cells were stained with a second secondary antibody (donkey-anti-goat-Dyelight488, 1:250 in Earle’s minimal essential medium, Dianova, Hamburg, Germany) for 30 min at 4°C to label receptor retained at the cellular surface. Cells were fixed with 4% paraformaldehyde, 4% sucrose in PBS for 15 min at 4°C, washed three times in PBS and stained with 4′,6-diamidino-2-phenylindole (DAPI, Thermo Fisher Scientific, Waltham, MA, USA) to label the cell nuclei for 5 min at 4°C (1:5000 in PBS). Coverslips were washed again with PBS and Aqua Dest and mounted on glass slides using mowiol.
The images were obtained using an inverted Olympus IX81 microscope equipped with an Olympus FV1000 confocal laser scanning system, a FVD10 SPD spectral detector and diode lasers of 495 nm (Alexa488) and 550 nm (Cy3; Olympus, Tokyo, Japan), and an Olympus UPLSAPO 60× (oil, numerical aperture: 1.35) objective. Adobe Photoshop (Adobe, San Jose, CA, USA) or ImageJ (1.51)/Fiji^1 were used for image analysis.

homomeric α1 GlyRs = tested on: homomeric α1 GlyRs; design: method as in Uchiyama et al., 1994; settings: ref Uchiyama et al., 1994; cited from earlier work
human homomeric α1 GlyRs = experiment: Whole-cell patch-clamp of glycine induced currents, modulators in the intracellular buffer, HEK293 cells expressing GlyR α1; assay type: cell-based; settings: for change of Imax at t = 10 min normalized to t = 0: 0.25 μM intracellular modulator, one-way ANOVA; for effect on EC50: 0.25 μM modulator, t = 0; for desensitization of glycine induced currents / effect on EC50 compared to control / Fraction of desensitizing cells / Imax: 0.5 μM modulator in intracellular buffer; for Fraction of desensitizing cells / Imax: mean ± SEM
Method: (§1) HEK293 cells were grown in 10 cm tissue culture Petri dishes in Eagle minimal essential medium (Sigma-Aldrich Chemie GmbH, Munich, Germany) supplemented with 10% FBS (Invitrogen, Karlsruhe, Germany) and penicillin/streptomycin (Sigma-Aldrich Chemie GmbH, Munich, Germany) at 5% CO2 and 37°C in a water saturated atmosphere. For electrophysiological experiments, cells were plated on poly-L lysine treated glass coverslips in 6 cm dishes. Transfection was performed 1 day after cell passage using Gen-Carrier (Epoch Lifesciences, Sugarland, TX, USA): 1.3 μg of receptor DNA, 1.3 μg of green fluorescent protein DNA, and 2.6 μl GenCarrier were used, following the manufacturer’s instructions. Measurements were performed 2–4 days after transfection. HEK293 cells used for protein expression and internalization analysis were transfected using a modified calcium phosphate precipitation method. In brief, a mixture of plasmid DNA, CaCl2 (2.5M), 0.1× TE buffer and 2× HBS (50 mM HEPES, 12 mM glucose, 10 mM KCl, 280 mM NaCl, 1.5 mM Na2HPO4) was applied onto the cells for 6 h. A GlyR α1 to GlyR β ratio of 1:2 was used for co-expression. Transfection medium was replaced by fresh medium after 6 h. Immunocytochemical stainings were always done 24 h after transfection, biotinylation experiments were performed 48 h after transfection.
(§2) using a nonlinear algorithm in Microcal Origin. Here, Iglycine is the current amplitude at a given glycine concentration, Isat is the maximum current amplitude at saturating concentrations of glycine, EC50 is the glycine concentration at half-maximal current responses, and nHill is the Hill coefficient. Currents from each individual cell were normalized to the maximum response at saturating glycine concentrations. Significance of differences between EC50 values were determined using one-way ANOVA with p ≤ 0.05 (*) and p ≤ 0.01 (**) taken as significant. In all experiments, EC50 values were determined for each individual cell from a non-linear fit of dose response data to the logistic equation. An unweighted average ± standard error (SEM) was calculated from all individual EC50 values, without considering the fitting errors.
(§3) For time course analysis, a series of EC50 data was recorded from each cell. The first concentration-response curve, defined as t = 0, was recorded immediately after establishing the whole-cell configuration and positioning the cell in front of the delivery tube. […] Further recordings were made at t = 3 min, t = 6 min and t = 10 min (not attained with all cells). Time-independent recordings were taken at t = 0, and values of EC50 and Imax in the presence of PKA- or PKC modulators were normalized to control (no modulator). For time course analysis, responses were normalized to the control value at t = 0. Patch-clamp experiments were carried out on different dates and using different batches of HEK 293 cells. Since control EC50 values varied between different days of plating and between batches of cells, measurements with kinase modulators were always compared to control measurements recorded on the same day and from the same batch of cells.

[1] = tested on: human heteromeric α1-β GlyRs; experiment: Whole-cell patch-clamp of glycine induced currents, modulators in the intracellular buffer, HEK293 cells expressing GlyR α1-β; assay type: cell-based; settings: for desensitization of glycine induced currents / effect on EC50 compared to control / Fraction of desensitizing cells / Imax: 0.5 μM modulator in intracellular buffer; for Fraction of desensitizing cells / Imax: mean ± SEM
Method: as §1, §2, §3

HEK293 cells = experiment: Tolerance of HEK293 cells to intracellular kinase modulators during patch-clamp; settings: intracellular concentration raised to 1 μM
Method: Whole-cell recording experiments were performed using a HEKA EPC10 amplifier (HEKA Electronics, Lambrecht, Germany) controlled by Pulse software (HEKA). Recording pipettes were pulled from borosilicate glass (World Precision Instruments, Berlin, Germany) using a Sutter P-97 horizontal puller (Sutter, Novato, CA, USA). […] Series resistance, as well as slow and fast capacitance were compensated using the EPC10 circuitry. The different protein kinase modulators were dissolved in intracellular buffer at a concentration of 0.5 μM. For studies of concentration- and time-dependence, kinase modulators were used at concentrations of 0.1 μM and 0.25 μM. Current responses were measured at room temperature (21–23°C) at a holding potential of −50 mV. Solutions were applied using an Octaflow system (NPI electronics, Tamm, Germany), where cells were bathed in a laminar flow of buffer, giving a time resolution for solution exchange and re-equilibration of about 100 ms. The external buffer consisted of 135 mM NaCl, 5.5 mM KCl, 2 mM CaCl2, 1.0 mM MgCl2 and 10 mM Hepes (pH adjusted to 7.4 with NaOH); the internal buffer was 140 mM CsCl, 1.0 mM CaCl2, 2.0 mM MgCl2, 5.0 mM EGTA and 10 mM Hepes (pH adjusted to 7.2 with CsOH).

Igly = tested on: Igly; design: method as in Min et al., 1996; settings: ref Min et al., 1996; cited from earlier work
[2] = tested on: glycine activated chloride currents; design: method as in Ren et al., 1998; settings: added to the pipette solution; ref Ren et al., 1998; cited from earlier work
[3] = tested on: GABA- and Gly-gated currents; design: method as in Machu et al., 2006; settings: oocytes; ref Machu et al., 2006; cited from earlier work
[4] = tested on: GABA- and Gly-gated currents; design: method as in Machu et al., 2006; settings: HEK293 cells, ref Machu et al., 2006, cited from earlier work
GlyRα1 = tested on: GlyRα1; design: method as in Huang et al., 2007; settings: ref Huang et al., 2007; cited from earlier work
glycine currents = tested on: glycine currents; design: method as in Tapia et al., 1997; settings: ref Tapia et al., 1997; cited from earlier work
GlyR [5] = tested on: GlyR; design: method as in Vaello et al., 1994; settings: ref Vaello et al., 1994; cited from earlier work
GlyR [6] = tested on: GlyR; design: method as in Li and Yang, 2001; settings: ref Li and Yang, 2001; cited from earlier work
GlyRs = tested on: GlyRs; design: method as in Salceda and Aguirre-Ramirez, 2005; settings: 10 μM Forskolin; ref Salceda and Aguirre-Ramirez, 2005; cited from earlier work
nAChR = tested on: nAChR; design: method as in Wagoner and Pallotta, 1988; settings: cAMP-independent; ref Wagoner and Pallotta, 1988; cited from earlier work

SMILES | internalized receptor (GlyR α1-β) | change of Imax at t = 10 min normalized to t = 0 (human homomeric α1 GlyRs) | effect on EC50 (human homomeric α1 GlyRs) | desensitization of glycine induced currents (human homomeric α1 GlyRs; GlyR α1) | effect on EC50 compared to control (human homomeric α1 GlyRs; GlyR α1) | Fraction of desensitizing cells (human homomeric α1 GlyRs; GlyR α1) | Imax (human homomeric α1 GlyRs; GlyR α1) | desensitization of glycine induced currents [1] | effect on EC50 compared to control [1] | Fraction of desensitizing cells [1] | Imax [1] | other results
O=C1NCc2c1c1c3ccccc3[nH]c1c1[nH]c3ccccc3c21 [Staurosporine aglycon] | 2.3 ± 0.5 dots/cell | not significant | opposite effect | slow or no desensitization | decrease of half maximum values | 0.10 ± 0.05 | 1.70 ± 0.29 nA | slow or no desensitization | decrease of half maximum values | 0.06 ± 0.04 | 1.11 ± 0.20 nA | effect of 4-beta-PMA in the presence of Staurosporine aglycon (homomeric α1 GlyRs): the effect was inhibited; cell survival (HEK293 cells): cells did not survive
NCC(=O)O [glycine] | – | – | – | – | – | – | – | – | – | – | – | EC50 (human homomeric α1 GlyRs; GlyR α1, absence of modulators, n = 11): 37.4 ± 3.7 µM; EC50 ([1]; absence of modulators, n = 8): 45.4 ± 6 µM
CCCCCCCCCCCCCC(=O)O[C@@H]1[C@@H](C)[C@@]2(O)[C@@H](C=C(CO)C[C@@]3(O)C(=O)C(C)=C[C@@H]23)[C@@H]2C(C)(C)[C@]12OC(C)=O [4-alpha-PMA] | – | – | – | – | – | – | – | – | – | – | – | effect on glycine currents (homomeric α1 GlyRs): did not affect the glycine currents
CCCCCCCCCCCCCC(=O)O[C@@H]1[C@@H](C)[C@@]2(O)[C@@H](C=C(CO)C[C@]3(O)C(=O)C(C)=C[C@@H]23)[C@@H]2C(C)(C)[C@]12OC(C)=O [4-beta-PMA] | – | – | – | – | – | – | – | – | – | – | – | effect on glycine currents (homomeric α1 GlyRs): Reduced responses
O=S(=O)(NCCNC/C=C/c1ccc(Br)cc1)c1cccc2cnccc12 [H-89] | 4.0 ± 1.0 dots/cell | not significant | opposite effect | non-desensitizing current responses | decreased EC50 values | 0.07 ± 0.03 | 1.91 ± 0.57 nA | non-desensitizing current responses | decreased EC50 values | 0.19 ± 0.09 | 1.37 ± 0.28 nA | effect on Igly (Igly): potentiation of Igly; effect on ATP induced run-up of the glycine current [2]: blocked
CCCCCCCCCCCCCC(=O)O[C@@H]1[C@@H](C)[C@@]2(O)[C@@H](C=C(CO)C[C@]3(O)C(=O)C(C)=C[C@@H]23)[C@@H]2C(C)(C)[C@]12OC(C)=O [PMA, phorbol-12-myristate-13-acetate] | 3.9 ± 0.7 dots/cell | significantly reduced | increased EC50 | no effect on receptor desensitization | increased | 0.05 ± 0.05 | 2.30 ± 0.74 nA | no effect on receptor desensitization | not statistically significant | 0.27 ± 0.08 | 1.26 ± 0.27 nA | peak amplitude of GABA- and Gly-gated currents [3]: large, reproducible decrease; modulation of receptors ([4]; 35°C): decreased the function; modulation of receptors ([4]; room temperature): ineffective; start of receptor internalization (GlyRα1): ≤ 15 min; effect on glycine currents (glycine currents): reduce the amplitude of glycine currents; effect on glycinergic currents (GlyR [5]): decreased glycinergic currents
C=C[C@@]1(C)CC(=O)[C@@H]2[C@@]3(C)CCCC(C)(C)[C@@H]3[C@H](O)[C@H](OC(C)=O)[C@@]2(C)O1 [1,9-dideoxy Forskolin] | – | – | – | – | – | – | – | – | – | – | – | effect on desensitization of whole cell responses (GlyR [6]): accelerates the desensitization effectively
C=C[C@@]1(C)CC(=O)[C@]2(O)[C@@]3(C)[C@@H](O)CCC(C)(C)[C@@H]3[C@H](O)[C@H](OC(C)=O)[C@@]2(C)O1 [Forskolin] | 6.9 ± 1.5 dots/cell | significantly reduced | increased EC50 | faster desensitization | significant increase | 0.57 ± 0.12 | 1.20 ± 0.24 nA | faster desensitization | significant increase | 0.52 ± 0.07 | 0.99 ± 0.24 nA | effect on desensitization of whole cell responses (GlyR [6]): markedly accelerates desensitization; effect on Igly (Igly): inhibited Igly potentiation; reduction of specific binding of both radioligands (GlyRs): 30%–90%; effect on desensitization of the nAChR (nAChR): enhancement of desensitization
